Measured values reported in US20200399222A1, “PICOLINAMIDES AS FUNGICIDES” (Dow AgroSciences LLC, priority 2018, published 2020).
Where two headings read alike, the source gives them in different places.

Test system: Phakopsora pachyrhizi
Test: Asian soybean rust (PHAKPA) disease control on soybean seedlings
Assay type: in vivo
Settings: High volume application at 25 ppm; for pest or weed control at 25 ppm: Phakopsora pachyrhizi
Procedure: Example C: Evaluation of Fungicidal Activity: Asian Soybean Rust (Phakopsora pachyrhizi; Bayer Code […]) Technical grades of materials were dissolved in acetone, which were then mixed with nine volumes of water containing 0.011% Tween 20. The fungicide solutions were applied onto soybean seedlings using an automated booth sprayer to run-off. All sprayed plants were allowed to air dry prior to further handling. Soybean plants (variety Williams 82) were grown in soil-less Metro mix, with one plant per pot. Two week old seedlings were used for testing. Plants were inoculated either 3 days prior to or 1 day after fungicide treatments. Plants were incubated for 24 h in a dark dew room at 22° C. and 100% relative humidity then transferred to a growth room at 23° C. for disease to develop. Disease severity was assessed on the sprayed leaves.

[1] = 24 h, 1 day protectant, read-out: PHAKPA 1DP (1 Day Protectant) disease control
[2] = 72 h, 3 day curative, read-out: PHAKPA 3DC (3 Day Curative) disease control

Row | SMILES | PHAKPA 1DP (1 Day Protectant) disease control (1 day protectant) | PHAKPA 3DC (3 Day Curative) disease control (3 day curative) | pest or weed control at 25 ppm [1] [%] | pest or weed control at 25 ppm [2] [%]
1 | COc1ccnc(C(=O)N[C@H](C(=O)O[C@@H](C)[C@@H](C)c2ccc(F)cc2C)C(C)C)c1OC(=O)C(C)C [Example 208] | A (>80) | D (≤0) |  | 
2 | COc1ccnc(C(=O)N[C@H](C(=O)O[C@@H](C)[C@H](C)c2ccccc2C)C(C)C)c1OC(=O)C(C)C [Example 211] |  |  | < 80 | < 0
3 | COc1ccnc2c(=O)n([C@@H](C)C(=O)O[C@@H](C)[C@@H](C)c3ccccc3C)c(=O)oc12 [Example 285] |  |  | > 80 | > 80
4 | COc1ccnc(C(=O)N[C@H](C(=O)O[C@@H](C)[C@H](C)c2ccc(F)cc2C)C(C)C)c1OC(=O)C(C)C [Example 210] |  |  | < 0 | < 0
5 | COc1ccnc(C(=O)N[C@H](C)C(=O)O[C@H](C)[C@H](C)c2ccc(F)cc2C)c1OC(C)=O [Example 195] |  |  | < 80 | < 0
6 | COc1ccnc(C(=O)N[C@@H](C)C(=O)O[C@@H](C)[C@H](C)c2ccccc2C)c1OC(=O)C(C)C [Example 228] | D (≤0) | D (≤0) |  | 
7 | COc1ccnc(C(=O)N[C@@H](C)C(=O)O[C@@H](C)[C@H](C)c2ccc(F)cc2C)c1OC(=O)C(C)C [Example 201] |  |  | < 80 | < 80
8 | COc1ccnc(C(=O)NCC(=O)O[C@@H](C)[C@@H](C)c2ccc(F)cc2C)c1OC(=O)C(C)C [Example 221] | D (≤0) | D (≤0) |  | 
9 | COc1ccnc(C(=O)N[C@H](C(=O)O[C@H](C)[C@H](C)c2ccc(F)cc2)C(C)C)c1OC(C)=O [Example 192] |  |  | < 80 | < 0
10 | COc1ccnc(C(=O)N[C@H](C(=O)O[C@H](C)[C@@H](C)c2ccccc2C)C(C)C)c1OC(C)=O [Example 191] |  |  | < 80 | < 80
11 | COc1ccnc(C(=O)N[C@@H](C)C(=O)O[C@@H](C)[C@@H](C)c2ccccc2C)c1OCOC(=O)C(C)C [Example 284] |  |  | > 80 | > 80
12 | COc1ccnc(C(=O)N[C@@H](C)C(=O)O[C@H](C)[C@H](C)c2ccc(F)cc2)c1OC(C)=O [Example 182] |  |  | < 80 | < 80
13 | COc1ccnc(C(=O)N[C@@H](C)C(=O)O[C@@H](C)[C@@H](C)c2ccc(F)cc2)c1OC(=O)C(C)C [Example 203] | A (>80) | B (≤80) |  | 
14 | COc1ccc([C@H](C)[C@H](C)OC(=O)[C@H](C)NC(=O)c2nccc(OC)c2OC(=O)C(C)C)c(C)c1 [Example 204] | A (>80) | A (>80) |  | 
15 | COc1ccc([C@H](C)[C@H](C)OC(=O)CNC(=O)c2nccc(OC)c2OC(=O)C(C)C)c(C)c1 [Example 224] | B (≤80) | D (≤0) |  | 
16 | COc1ccnc(C(=O)N[C@H](C)C(=O)O[C@@H](C)[C@H](C)c2ccc(F)cc2C)c1OC(=O)C(C)C [Example 218] |  |  | < 0 | < 80
17 | COc1ccnc(C(=O)N[C@H](C(=O)O[C@@H](C)[C@H](C)c2ccc(F)cc2C)C(C)C)c1OC(C)=O [Example 185] |  |  | < 0 | < 0
18 | CCCC(=O)Oc1c(OC)ccnc1C(=O)N[C@@H](C)C(=O)O[C@@H](C)[C@@H](C)c1ccccc1C [Example 279] |  |  | > 80 | > 80

Row | SMILES | PHAKPA 1DP (1 Day Protectant) disease control (1 day protectant) | PHAKPA 3DC (3 Day Curative) disease control (3 day curative) | pest or weed control at 25 ppm [1] [%] | pest or weed control at 25 ppm [2] [%]
19 | COc1ccc([C@H](C)[C@H](C)OC(=O)CNC(=O)c2nccc(OC)c2OC(=O)C(C)C)c(C)c1 [Example 200] |  | B (≤80) | < 80 | 
20 | COc1ccnc(C(=O)N[C@H](C)C(=O)O[C@@H](C)[C@H](C)c2ccccc2C)c1OC(C)=O [Example 194] |  |  | < 0 | < 0
21 | CCC(=O)Oc1c(OC)ccnc1C(=O)N[C@@H](C)C(=O)O[C@@H](C)[C@@H](C)c1ccccc1C [Example 278] |  |  | > 80 | > 80
22 | COc1ccc([C@@H](C)[C@@H](C)OC(=O)[C@@H](NC(=O)c2nccc(OC)c2OC(=O)C(C)C)C(C)C)c(C)c1 [Example 217] |  |  | < 80 | < 0
23 | COc1ccnc(C(=O)N[C@H](C(=O)O[C@@H](C)[C@@H](C)c2ccc(F)cc2C)C(C)C)c1OC(C)=O [Example 184] |  |  | > 80 | > 80
24 | COc1ccc([C@H](C)[C@H](C)OC(=O)[C@@H](NC(=O)c2nccc(OC)c2OC(C)=O)C(C)C)c(C)c1 [Example 188] |  |  | > 80 | < 80
25 | COc1ccnc(C(=O)NCC(=O)O[C@@H](C)[C@H](C)c2ccc(F)cc2C)c1OC(=O)C(C)C [Example 197] |  |  | < 0 | < 0
26 | COc1ccnc(C(=O)N[C@H](C(=O)O[C@@H](C)[C@@H](C)c2ccc(F)cc2)C(C)C)c1OC(=O)C(C)C [Example 212] |  |  | < 80 | < 80
27 | COc1ccnc(C(=O)N[C@H](C(=O)O[C@@H](C)[C@@H](C)c2ccc(F)cc2C)C(C)C)c1OC(=O)C(C)C [Example 205] |  | B (≤80) | > 80 | 
28 | COc1ccc([C@H](C)[C@H](C)OC(=O)[C@@H](NC(=O)c2nccc(OC)c2OC(=O)C(C)C)C(C)C)c(C)c1 [Example 213] |  |  | > 80 | < 80
29 | COc1ccnc(C(=O)N[C@@H](C)C(=O)O[C@@H](C)[C@H](C)c2ccccc2C)c1OC(=O)C(C)C [Example 202] | B (≤80) |  |  | < 0
30 | COc1ccnc(C(=O)N[C@@H](C)C(=O)O[C@H](C)[C@H](C)c2ccc(F)cc2)c1OC(=O)C(C)C [Example 226] |  |  | < 0 | < 80
31 | COc1ccc([C@@H](C)[C@@H](C)OC(=O)[C@H](C)NC(=O)c2nccc(OC)c2OC(=O)C(C)C)c(C)c1 [Example 227] |  |  | < 80 | < 0
32 | COc1ccnc(C(=O)N[C@@H](C)C(=O)O[C@H](C)[C@@H](C)c2ccc(F)cc2C)c1OC(C)=O [Example 181] |  |  | < 80 | < 0
33 | COc1ccnc(C(=O)NCC(=O)O[C@@H](C)[C@@H](C)c2ccc(F)cc2)c1OC(=O)C(C)C [Example 199] |  |  | < 0 | < 0
34 | COc1ccnc(C(=O)N[C@@H](C)C(=O)O[C@H](C)[C@@H](C)c2ccccc2C)c1OC(=O)C(C)C [Example 225] |  |  | < 0 | < 0
35 | COc1ccnc(C(=O)N[C@H](C(=O)O[C@@H](C)[C@@H](C)c2ccc(F)cc2C)C(C)C)c1OC(=O)C(C)C [Example 209] | A (>80) | A (>80) |  | 
36 | COc1ccnc(C(=O)N[C@H](C(=O)O[C@H](C)[C@H](C)c2ccc(F)cc2C)C(C)C)c1OC(C)=O [Example 189] |  |  | > 80 | < 80
